Assay [1] concerns hOR17-4. The experiment in a line: Ca2+ imaging (Fura-2) of HEK293 cells transiently transfected with pOR17-4 (chimeric receptor). It counts as cell-based, human. An excerpt:
Es wird vermutet, dass die Transmembrandomänen III-VI eine Bindungstasche zum Binden von Agonisten bilden (s. S. Firestein, Nature 413, 211-218 (2001)). Um diese Vermutung für den Rezeptor hOR17-4 zu überprüfen wurde ein für die vermuteten Transmembrandomänen III bis VI codierender Abschnitt der für hOR17-4 codierenden cDNA in einem Shuttle-Expressions-Vektor (pOLF-Express) kloniert. Der Expressionsvektor pOLF-Express umfasst die für die N- und C-terminalen Regionen von hOR17-40 codierenden DNA-Abschnitte (C. H. Wetzel et al., Journal of Neuroscience 19, 7426-7433 (1999)). Das resultierende chimäre Rezeptorprotein sollte die Agonistenspezifität des vollständigen Rezeptors hOR17-4 besitzen.
HEK293-Zellen wurden in MEM (Life Technologies, Gaithersburg, MD), das mit 10 % hitze-inaktiviertem fetalem Kälber-Serum angereichert war, in einem Inkubator bei 37 °C in einer Atmosphäre aus 95 % befeuchteter Luft und 5 % CO2 kultiviert. Semikonfluente Zellen wurden in 35 mm Gefäßen (Falcon) mittels Calciumphosphat-Präzipitation (Zufall et al., PNAS 90 (1993), 9335-9339) unter Verwendung jeweils des Plasmids pOR17-4 bzw. pOR17-4v transfiziert. Die Transfektionseffizienz - typischerweise 10 % - wurde histochemisch mit dem Reporterplasmid pCH110 (Pharmacia, Uppsala, Schweden) überprüft, das für β-Galactosidase codiert. Messungen wurden 48 bis 72 Stunden nach der Transfektion durchgeführt. Die Transfektionseffizienz kann mit einem für GFP, einem grün fluoreszierenden Protein, codierenden Reporterplasmid ebenfalls überprüft werden.
Die Rezeptor-Aktivierung in HEK293-Zellen führt zu einem vorübergehenden Anstieg der cytosolischen Ca^2+-Konzentration, die auf der Einzelzell-Ebene unter Verwendung des Ca^2+-sensitiven Farbstoffes Fura-2 (Fura-2 AM, Molecular Probes Europe BV, Leiden, Niederlande; Ladekonzentration 3-4 µg/ml; Ladezeit ca. 30 min) und ratiofluorometrischen Bildgebungstechniken (Imaging-Experimente) detektiert wurden.
(§1) Die Ca^2+-imaging-Experimente wurden auf dem Träger eines invertierten Zeiss-Mikroskopes durchgeführt, das für die ratiofluorometrische Bildgebung mit einer Xenon-Bogenlampe, einem Vielfach-Wellenlängen-Illuminations-System POLYCH-ROM II zur Anregung, einer gekühlten charge-coupled device (CCD)-Kamera und einer WinNT-basierten T.I.L.L.-Vision-Software zum Sammeln und raum- und zeitabhängigen Quantifizieren Ca^2+-abhängiger Fluoreszenz-Signale (F340/F380-Verhältnis) ausgestattet war. HEK293-Zellen wurden mit 32-facher, Spermazellen mit 63-facher Vergrößerung beobachtet.
(§2) HEK293- und Spermazellen wurden unter Verwendung eines speziellen Applikations-Systems, das es gestattete, vorübergehend alle Zellen im Blickfeld aus einem von sechs benutzergewählten Kapillarröhrchen zu überspülen, Geruchs- und/oder Wirkstoffen (Testlösungen) ausgesetzt. Der Wechsel zwischen den Testlösungen erfolgte nahezu sofort; auch trat im Wesentlichen keine Wirkungsverzögerung nach dem Wechsel auf, weil die Röhrchenspitzen zum optischen Feld eng benachbart waren. Zwischen den Applikationen von Testlösungen überspülte ein Pufferlösungsstrom kontinuierlich alle Zellen im Gefäß, um jedwede potentielle Hintergrund-Anreicherung von Testlösungen (Geruchs- bzw. Wirkstoffen) zu minimieren. Alle Lösungen wurden bei Raumtemperatur appliziert. Alle verwendeten Geruchsstoffe stammten von Dr. T. Gerke, Henkel KGaA, Düsseldorf, FRG, andere Wirkstoffe wurden von Sigma gekauft. Zur Zusammensetzung der Henkel 100-Mischung vergleiche C. H. Wetzel et al., Journal of Neuroscience 19, 7426-7433 (1999).
Alle auf die potentielle Aktivierung von hOR17-4 untersuchten Geruchsstoffe wurden wenigstens in drei verschiedenen Reihen von Transfektionsexperimenten getestet. […] Geruchsstoffe, die nicht in wenigstens 2 % aller HEK293-Zellen messbare Ca^2+-Konzentrationssteigerung auslösten, wurden nicht zu den hOR17-4-spezifischen Agonisten gezählt, ebenso diejenigen wenigen der untersuchten Komponenten, die ein unspezifisches Ca^2+-Signal in fast jeder Zelle hervorriefen. […]

Assay [2] addresses T1, hOR17-4 Rezeptor der vollen Länge (Homo sapiens, UniProt P34982).
T1 construct: wurde der Rezeptor hOR17-4 in seiner vollen Länge wie in Beispiel 3 beschrieben kloniert; expressed in transfected cells; host or cells: HEK293, transient, plasmid pOR17-4v (pRC/CMV)
T1 sequence (P34982 1-312): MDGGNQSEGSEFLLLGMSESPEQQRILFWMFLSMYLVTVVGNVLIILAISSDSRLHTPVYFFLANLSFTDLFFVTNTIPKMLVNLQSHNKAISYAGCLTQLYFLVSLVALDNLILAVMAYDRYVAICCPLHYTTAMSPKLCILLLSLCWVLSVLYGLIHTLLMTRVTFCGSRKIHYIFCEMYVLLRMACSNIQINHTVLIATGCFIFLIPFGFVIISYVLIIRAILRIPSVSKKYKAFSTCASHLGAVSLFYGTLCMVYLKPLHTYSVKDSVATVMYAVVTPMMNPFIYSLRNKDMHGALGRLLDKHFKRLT
The experiment in a line: Ca2+ imaging of HEK293 cells expressing full-length receptor (pOR17-4v). It counts as cell-based. An excerpt:
Um einen Expressionsvektor für das gesamte hOR17-4-Gen ohne geänderte Aminosäuresequenz zu erhalten, wurde das 982 bp lange PCR-Produkt (SEQ ID NO. 3, Herstellung vergleiche Beispiel 2) über stumpfe Enden in den Hindlll/Xbal verdauten Vektor pRC/CMV (Invitrogen, Carlsbad, CA), dessen überhängende Enden mit Klenow-Enzym aufgefüllt worden waren, einkloniert.
HEK293-Zellen wurden in MEM (Life Technologies, Gaithersburg, MD), das mit 10 % hitze-inaktiviertem fetalem Kälber-Serum angereichert war, in einem Inkubator bei 37 °C in einer Atmosphäre aus 95 % befeuchteter Luft und 5 % CO2 kultiviert. Semikonfluente Zellen wurden in 35 mm Gefäßen (Falcon) mittels Calciumphosphat-Präzipitation (Zufall et al., PNAS 90 (1993), 9335-9339) unter Verwendung jeweils des Plasmids pOR17-4 bzw. pOR17-4v transfiziert. […]
Die Ca^2+-imaging-Experimente wurden auf dem Träger eines invertierten Zeiss-Mikroskopes durchgeführt, das für die ratiofluorometrische Bildgebung mit einer Xenon-Bogenlampe, einem Vielfach-Wellenlängen-Illuminations-System POLYCH-ROM II zur Anregung, einer gekühlten charge-coupled device (CCD)-Kamera und einer WinNT-basierten T.I.L.L.-Vision-Software zum Sammeln und raum- und zeitabhängigen Quantifizieren Ca^2+-abhängiger Fluoreszenz-Signale (F340/F380-Verhältnis) ausgestattet war. […]

For assay [3], the system named is humane Spermien. Kind of assay: Ca2+ imaging of head and midpiece of single human spermatozoa. It counts as cell-based.
Description: as §1, §2
Die mögliche Rolle von hOR17-4 in einem Ca^2+-vermittelten physiologischen Prozess in humanen Spermatozoen (z.B. Acrosomreaktion, Kapazitationsprozess oder Änderungen zur hyperaktivierten Beweglichkeit) wurden durch Ca^2+-Imaging der Kopf- und der Mittelregion von einzelnen humanen Spermien untersucht. Dazu wurden frisch von jungen, gesunden Spendern erhaltene humane Spermien unverzüglich in 1,5-ml Plastikröhrchen transferiert. Nach 30 minütiger aufrechter Inkubation bei 37 °C wurden 75 µl beweglicher Spermien aus der oberen Schicht der Spermiensuspension auf Concanavalin A-beschichtete 35 mm Petrischalen transferiert und 45 Minuten lang bei Raumtemperatur in 1 ml Ladungspuffer (pH 7,4) mit 140 mM NaCl, 5 mM KCI, 2 mM CaCl2, 2 mM MgCl2, 10 mM Hepes, 10 mM Glucose, 5 µM Fura-2-AM (Molecular Probes), and 0,1 % Pluronic F-127 inkubiert. Danach wurde das Medium sanft durch Fura-2-AM-freie Pufferlösung ausgewechselt. Nicht an den Boden angeheftetes Sperma wurde durch diesen Schritt entfernt. Ca^2+-Bilder wurden von 8 bis 15 Spermatozoen in einem zufällig gewählten Sichtfeld aufgenommen. Die Fluoreszenzsignale eines Spermienkopfes und der Mittelregion wurden gemessen. […]

Entries after “also recorded” stand apart in the source; their conditions may differ.

For `CCCCCCCCCCC=O` [n-Undecanal], in assay [1] (pre-incubation 30 s or longer before Bourgeonal), the “Zellen, die auf Bourgeonal antworteten, mit vollständig inhibierter Rezeptoraktivierung” value is reported as 26 von 28. The “Einfluss auf die hOR17-4-Rezeptoraktivierung durch Bourgeonal” value in assay [1] (single components of Mix D, pre-incubation) is “vollständig inhibiert”. The “Inhibition der Bourgeonal-Antwort” value in assay [2] (30 to 60 s pre-incubation of the cells) is “inhibiert”. For the same compound, the “Blockade der Ca^2+-Antworten auf Bourgeonal” value in assay [3] (co-application at same concentration as Bourgeonal, with or without pre-incubation, n = 10) is listed as “blockierte vollständig”.
For `CC(C)(C)c1ccc(CCC=O)cc1` [Bourgeonal], the “Induktion einer Ca^2+-Konzentrationssteigerung” value in assay [1] (agonist concentration reduced to 10^-6 M) is reported as “deutlich”. Moreover, the “Wirksamkeit (Rangordnung der Agonisten)” value in assay [1] (ranking by amplitude normalised to ATP and by responding cells relative to Cyclamal ca. 5 mM) is “wirksamere Agonisten; also recorded: der wirksamste getestete Agonist”. For the same compound, in assay [1] (single odorant about 500 µM, pOR17-4-transfected HEK293 cells), the “Rezeptoraktivierung (Ca^2+-Antwort)” value was “Fähigkeit der Substanzen, den Rezeptor zu aktivieren”. Moreover, in assay [2], the “Aktivierung des vollständigen Rezeptors hOR17-4” value is given as “aktivierte deutlich”. The “vorübergehende Ca^2+-Antworten, Anteil aller getesteten Spermatozoen” value in assay [3] (5 s application, 43 of 119 spermatozoa, 12 experiments) came out at 36%. Besides, the “Schwellenwert (Konzentration für Ca^2+-Antwort)” value in assay [3] (about two orders of magnitude lower than for recombinant receptor) is ≥ 10^-8 M. In addition, the “Effizienz (Reihenfolge der Agonisten) in Spermien” value in assay [3] (direct comparison in the same sperm) is recorded as “potentesten getesteten Liganden”.

These data come from patent EP1551873B1, “AGONISTS AND ANTAGONISTS OF THE HUMAN ODORANT RECEPTOR OR17-4 AND USES THEREOF” (Symrise AG, priority 2002, dated 2004).
